Activity calls are given as the source filed them.
Columns and labels:
[1] = cells; type: functional, cell-based
[2] = biological target: T1, Trace amine-associated receptor 1 (Homo sapiens, UniProt Q96RJ0); assay: Fluorescence-based cell-based high throughput dose response assay to identify agonists of the human trace amine associated receptor 1 (TAAR1).; type: functional
T1 sequence (Q96RJ0 whole entry): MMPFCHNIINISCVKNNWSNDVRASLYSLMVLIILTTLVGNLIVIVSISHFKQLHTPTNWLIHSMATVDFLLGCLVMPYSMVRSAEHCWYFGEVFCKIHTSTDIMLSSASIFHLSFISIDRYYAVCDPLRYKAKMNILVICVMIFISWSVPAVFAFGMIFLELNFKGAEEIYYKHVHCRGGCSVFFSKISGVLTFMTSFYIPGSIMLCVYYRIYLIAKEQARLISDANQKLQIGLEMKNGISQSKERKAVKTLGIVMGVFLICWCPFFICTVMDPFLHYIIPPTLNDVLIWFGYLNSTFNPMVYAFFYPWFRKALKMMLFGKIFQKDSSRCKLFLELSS

[3] = biological target: T1, Trace amine-associated receptor 1; assay: Counterscreen for agonists of the human trace amine associated receptor 1 (hTAAR1): Fluorescence-based cell-based high throughput dose response assay to identify hTAAR1 agonist that also desensitize TAAR1 receptor response.; type: functional
[4] = cells; type: functional, cell-based; remark: listed apart in the source
[5] = biological target: T2, DNA repair and recombination protein RAD54-like (Homo sapiens, UniProt Q92698); assay: RAD54 Holliday junction migration blockers – biochemical, fluorescence, cherry-picked samples, dose series, confirmation (AID 651657); type: functional
T2 sequence (Q92698 whole entry): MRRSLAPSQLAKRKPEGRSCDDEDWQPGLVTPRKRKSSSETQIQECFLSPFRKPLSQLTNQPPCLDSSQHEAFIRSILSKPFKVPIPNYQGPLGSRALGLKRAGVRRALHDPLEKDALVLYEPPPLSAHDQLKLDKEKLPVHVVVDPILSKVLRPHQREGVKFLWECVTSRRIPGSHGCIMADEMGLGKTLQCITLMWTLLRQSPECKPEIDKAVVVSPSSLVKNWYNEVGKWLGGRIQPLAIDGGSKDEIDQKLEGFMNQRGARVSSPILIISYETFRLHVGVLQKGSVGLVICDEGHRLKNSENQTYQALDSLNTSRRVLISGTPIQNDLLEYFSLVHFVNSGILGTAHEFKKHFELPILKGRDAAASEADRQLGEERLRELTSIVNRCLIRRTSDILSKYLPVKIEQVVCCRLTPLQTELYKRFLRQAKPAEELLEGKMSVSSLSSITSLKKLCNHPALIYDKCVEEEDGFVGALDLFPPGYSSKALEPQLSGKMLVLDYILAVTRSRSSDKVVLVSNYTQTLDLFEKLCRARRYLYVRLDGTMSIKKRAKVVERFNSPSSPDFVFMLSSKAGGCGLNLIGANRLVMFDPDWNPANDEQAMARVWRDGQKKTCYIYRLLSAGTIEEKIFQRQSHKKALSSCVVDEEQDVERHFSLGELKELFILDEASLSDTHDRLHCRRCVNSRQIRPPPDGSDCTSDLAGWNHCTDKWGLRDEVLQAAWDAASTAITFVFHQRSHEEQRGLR

[6] = bead-based luminescence quenchers, dual-tagged ARNT – biochemical, AlphaScreen, cherry-pick, artefact control for ARNT-TACC3 interaction inhibitor project, dose response (AID 651705); type: functional;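 further: AlphaScreen bead proximity signal that flags compounds interfering with the detection technology; potency reflects signal decrease which marks the compound as an assay artifact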
[7] = biological target: T3, Cytochrome P450 1A2 (Homo sapiens, UniProt P05177);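 further: PubChem cytochrome P450 panel assay, CYP1A2 panel member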
T3 sequence (P05177 whole entry): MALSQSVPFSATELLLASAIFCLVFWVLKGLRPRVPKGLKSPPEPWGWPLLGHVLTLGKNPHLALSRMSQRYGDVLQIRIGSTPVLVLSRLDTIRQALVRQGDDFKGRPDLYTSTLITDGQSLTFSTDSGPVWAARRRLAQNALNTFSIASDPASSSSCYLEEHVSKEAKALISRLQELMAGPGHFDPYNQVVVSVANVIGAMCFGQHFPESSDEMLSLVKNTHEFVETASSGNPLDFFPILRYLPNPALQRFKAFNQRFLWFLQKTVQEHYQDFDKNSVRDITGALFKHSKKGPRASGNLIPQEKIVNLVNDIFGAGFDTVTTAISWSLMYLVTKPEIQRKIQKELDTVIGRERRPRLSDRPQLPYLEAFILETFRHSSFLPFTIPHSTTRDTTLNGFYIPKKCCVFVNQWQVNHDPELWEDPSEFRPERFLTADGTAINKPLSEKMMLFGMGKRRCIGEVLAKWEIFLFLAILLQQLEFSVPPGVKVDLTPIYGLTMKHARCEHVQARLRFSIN

[8] = biological target: Cytochrome P450 2C9 (Homo sapiens, UniProt P11712)
[9] = biological target: T4, DNA repair protein RAD52 homolog (Homo sapiens, UniProt P43351); type: functional, biochemical
T4 sequence (P43351 whole entry): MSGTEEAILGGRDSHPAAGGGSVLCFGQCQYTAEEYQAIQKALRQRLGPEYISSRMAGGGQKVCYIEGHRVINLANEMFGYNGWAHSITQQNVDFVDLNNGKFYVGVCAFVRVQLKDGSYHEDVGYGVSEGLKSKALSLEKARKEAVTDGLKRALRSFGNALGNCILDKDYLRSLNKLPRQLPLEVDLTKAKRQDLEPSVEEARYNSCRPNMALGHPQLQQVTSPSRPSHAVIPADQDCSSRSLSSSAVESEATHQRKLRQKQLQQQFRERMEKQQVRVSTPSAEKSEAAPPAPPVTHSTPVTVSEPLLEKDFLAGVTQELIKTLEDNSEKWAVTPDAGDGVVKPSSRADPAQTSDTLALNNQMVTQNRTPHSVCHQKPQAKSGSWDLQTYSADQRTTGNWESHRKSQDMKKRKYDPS

[10] = biological target: T5, Coagulation factor XII (Homo sapiens, UniProt P00748); type: functional;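 further: activated factor XIIa alpha cleaving a fluorogenic AMC peptide substrate; inhibitor potency from loss of enzyme activity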
T5 sequence (P00748 whole entry): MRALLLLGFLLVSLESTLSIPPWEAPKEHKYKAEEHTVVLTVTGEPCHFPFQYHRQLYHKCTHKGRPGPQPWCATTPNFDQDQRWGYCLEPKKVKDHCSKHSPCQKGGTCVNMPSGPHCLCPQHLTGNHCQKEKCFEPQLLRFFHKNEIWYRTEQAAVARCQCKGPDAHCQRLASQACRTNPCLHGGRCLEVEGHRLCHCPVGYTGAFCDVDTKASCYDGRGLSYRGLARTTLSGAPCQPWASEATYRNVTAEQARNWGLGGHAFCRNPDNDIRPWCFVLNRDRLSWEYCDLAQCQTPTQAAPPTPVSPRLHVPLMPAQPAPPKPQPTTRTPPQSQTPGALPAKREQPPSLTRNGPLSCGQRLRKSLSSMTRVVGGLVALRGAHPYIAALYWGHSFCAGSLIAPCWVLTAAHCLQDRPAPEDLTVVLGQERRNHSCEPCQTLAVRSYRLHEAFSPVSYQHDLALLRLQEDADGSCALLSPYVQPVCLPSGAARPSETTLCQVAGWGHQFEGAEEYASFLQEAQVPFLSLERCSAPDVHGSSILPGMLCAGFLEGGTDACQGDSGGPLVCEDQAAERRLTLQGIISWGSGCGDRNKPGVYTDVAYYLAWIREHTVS

[11] = biological target: DNA (cytosine-5)-methyltransferase 1 (Homo sapiens, UniProt P26358); assay: inhibition of DNA methylation by DNMT1 – biochemical, fluorescent molecular beacon, confirmation (AID 602386); type: functional
[12] = test system: Streptococcus sp. 'group A'; assay: Streptococcus pyogenes SK(-)GAS viability under kanamycin – luminescence, BacTiterGlo, confirmation, counter-screen for streptokinase expression inhibitor project, dose response (AID 1900); type: functional, organism-based
[13] = biological target: T6, Streptokinase A (Streptococcus pyogenes serotype M1, UniProt P10520); assay: viability-normalized secreted streptokinase activity reduction – plasminogen activation absorbance, OD405, dose response (AID 1914); type: functional, Streptococcus pyogenes M1 GAS;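 further: secreted streptokinase activity via plasminogen activation per viability signal from cell pellet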
T6 sequence (P10520 whole entry): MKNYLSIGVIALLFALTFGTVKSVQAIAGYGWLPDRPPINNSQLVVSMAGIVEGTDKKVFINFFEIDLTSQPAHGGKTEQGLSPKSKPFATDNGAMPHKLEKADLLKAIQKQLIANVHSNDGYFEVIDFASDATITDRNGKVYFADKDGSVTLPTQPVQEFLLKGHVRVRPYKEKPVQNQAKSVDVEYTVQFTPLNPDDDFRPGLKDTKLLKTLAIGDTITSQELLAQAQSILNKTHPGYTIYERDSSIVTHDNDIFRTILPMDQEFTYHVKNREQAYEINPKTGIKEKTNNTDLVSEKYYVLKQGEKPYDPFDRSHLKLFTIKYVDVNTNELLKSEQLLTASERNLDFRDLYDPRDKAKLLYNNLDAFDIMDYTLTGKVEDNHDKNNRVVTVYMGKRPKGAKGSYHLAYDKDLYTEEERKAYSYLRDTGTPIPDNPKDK

[14] = Trypanosoma cruzi growth suppression in host cells – NIH3T3 host cells, beta-gal luminescence, confirmation (AID 2044); type: functional, cell-based;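 further: intracellular parasites grown in NIH/3T3 mouse fibroblasts as host cells; luminescent beta-galactosidase reporter signal from transgenic T. cruzi replicating inside host cells; inhibitors lower the luminescence signal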
[15] = NIH3T3 cell viability loss – ATP luminescence, mouse fibroblasts, counter-screen, dose response (AID 2010); type: functional, cell-based;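 further: cells exposed to compound for about 90 hours before reading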
[16] = test system: Streptococcus; assay: GAS UMAA2166 growth inhibition – luminescence, BacTiterGlo, counter-screen for streptokinase expression inhibitor project, dose response (AID 1915); type: functional, organism-based;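 further: potency for reduction of bacterial viability or growth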
[17] = blockers of HIV-1 envelope-mediated cell-cell fusion – cherry-pick, dose response (AID 652057); type: functional, cell-based
[18] = viability loss in CEM21 cells – cell-based, CellTiter-Glo luminescence, cherry-picked, cytotoxicity control for viral fusion inhibitor project, dose response (AID 652042); type: functional;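 further: potency for signal decrease meaning cytotoxicity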
[19] = blockers of HIV-1 ZM109 envelope-driven cell-cell fusion – HeLa effector, CEM target cells, luciferase, cherry-pick, dose response (AID 652058); type: functional, cell-based;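 further: luciferase signal from HIV-1 Env mediated cell-cell fusion of effector and target cells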
[20] = HIV-1 AD8 envelope cell-cell fusion blockers – cherry-pick, dose response (AID 652062); type: functional, cell-based;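 further: luciferase signal from cell-cell fusion driven by HIV-1 clade B AD8 Env; potency is for inhibitors of fusion seen as a drop in luminescence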
[21] = biological target: T7, Ubiquitin-conjugating enzyme E2 N (Homo sapiens, UniProt P61088); type: functional;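 further: Dose-response confirmation in a TR-FRET assay detecting UBC13-driven polyubiquitin chain formation, inhibition measured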
T7 sequence (P61088 whole entry): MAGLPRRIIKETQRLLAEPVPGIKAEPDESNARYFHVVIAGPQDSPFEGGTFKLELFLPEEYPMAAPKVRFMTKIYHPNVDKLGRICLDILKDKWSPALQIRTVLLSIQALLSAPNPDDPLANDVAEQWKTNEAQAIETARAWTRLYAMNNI

[22] = viability loss in HeLa cells – cytotoxicity control for MgcRacGAP inhibitor project, dose response (AID 624300); type: functional
[23] = biological target: T8, Rac GTPase-activating protein 1 (Homo sapiens, UniProt Q9H0H5); assay: blockers of MgcRacGAP-driven Rac1 GTP hydrolysis – biochemical, ADP Hunter fluorescence, primary and confirmatory, confirmation (AID 624330); type: functional
T8 sequence (Q9H0H5 whole entry): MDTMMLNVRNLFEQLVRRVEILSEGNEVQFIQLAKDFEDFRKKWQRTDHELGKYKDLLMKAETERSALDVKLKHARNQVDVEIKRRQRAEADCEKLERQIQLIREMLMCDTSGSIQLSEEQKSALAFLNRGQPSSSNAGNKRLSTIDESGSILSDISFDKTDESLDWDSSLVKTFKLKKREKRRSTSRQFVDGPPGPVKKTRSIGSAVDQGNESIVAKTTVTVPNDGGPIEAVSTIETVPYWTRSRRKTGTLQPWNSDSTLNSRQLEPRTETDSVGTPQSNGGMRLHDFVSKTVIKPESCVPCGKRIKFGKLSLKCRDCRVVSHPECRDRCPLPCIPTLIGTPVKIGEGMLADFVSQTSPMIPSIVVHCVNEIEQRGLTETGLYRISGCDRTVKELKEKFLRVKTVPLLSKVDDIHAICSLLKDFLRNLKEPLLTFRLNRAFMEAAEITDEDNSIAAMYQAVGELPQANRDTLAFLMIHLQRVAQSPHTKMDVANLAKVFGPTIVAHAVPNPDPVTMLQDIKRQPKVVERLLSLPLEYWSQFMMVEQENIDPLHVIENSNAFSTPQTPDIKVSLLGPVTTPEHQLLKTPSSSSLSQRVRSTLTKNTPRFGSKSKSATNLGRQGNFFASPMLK

DNA (cytosine-5)-methyltransferase 1, sequence (P26358 whole entry): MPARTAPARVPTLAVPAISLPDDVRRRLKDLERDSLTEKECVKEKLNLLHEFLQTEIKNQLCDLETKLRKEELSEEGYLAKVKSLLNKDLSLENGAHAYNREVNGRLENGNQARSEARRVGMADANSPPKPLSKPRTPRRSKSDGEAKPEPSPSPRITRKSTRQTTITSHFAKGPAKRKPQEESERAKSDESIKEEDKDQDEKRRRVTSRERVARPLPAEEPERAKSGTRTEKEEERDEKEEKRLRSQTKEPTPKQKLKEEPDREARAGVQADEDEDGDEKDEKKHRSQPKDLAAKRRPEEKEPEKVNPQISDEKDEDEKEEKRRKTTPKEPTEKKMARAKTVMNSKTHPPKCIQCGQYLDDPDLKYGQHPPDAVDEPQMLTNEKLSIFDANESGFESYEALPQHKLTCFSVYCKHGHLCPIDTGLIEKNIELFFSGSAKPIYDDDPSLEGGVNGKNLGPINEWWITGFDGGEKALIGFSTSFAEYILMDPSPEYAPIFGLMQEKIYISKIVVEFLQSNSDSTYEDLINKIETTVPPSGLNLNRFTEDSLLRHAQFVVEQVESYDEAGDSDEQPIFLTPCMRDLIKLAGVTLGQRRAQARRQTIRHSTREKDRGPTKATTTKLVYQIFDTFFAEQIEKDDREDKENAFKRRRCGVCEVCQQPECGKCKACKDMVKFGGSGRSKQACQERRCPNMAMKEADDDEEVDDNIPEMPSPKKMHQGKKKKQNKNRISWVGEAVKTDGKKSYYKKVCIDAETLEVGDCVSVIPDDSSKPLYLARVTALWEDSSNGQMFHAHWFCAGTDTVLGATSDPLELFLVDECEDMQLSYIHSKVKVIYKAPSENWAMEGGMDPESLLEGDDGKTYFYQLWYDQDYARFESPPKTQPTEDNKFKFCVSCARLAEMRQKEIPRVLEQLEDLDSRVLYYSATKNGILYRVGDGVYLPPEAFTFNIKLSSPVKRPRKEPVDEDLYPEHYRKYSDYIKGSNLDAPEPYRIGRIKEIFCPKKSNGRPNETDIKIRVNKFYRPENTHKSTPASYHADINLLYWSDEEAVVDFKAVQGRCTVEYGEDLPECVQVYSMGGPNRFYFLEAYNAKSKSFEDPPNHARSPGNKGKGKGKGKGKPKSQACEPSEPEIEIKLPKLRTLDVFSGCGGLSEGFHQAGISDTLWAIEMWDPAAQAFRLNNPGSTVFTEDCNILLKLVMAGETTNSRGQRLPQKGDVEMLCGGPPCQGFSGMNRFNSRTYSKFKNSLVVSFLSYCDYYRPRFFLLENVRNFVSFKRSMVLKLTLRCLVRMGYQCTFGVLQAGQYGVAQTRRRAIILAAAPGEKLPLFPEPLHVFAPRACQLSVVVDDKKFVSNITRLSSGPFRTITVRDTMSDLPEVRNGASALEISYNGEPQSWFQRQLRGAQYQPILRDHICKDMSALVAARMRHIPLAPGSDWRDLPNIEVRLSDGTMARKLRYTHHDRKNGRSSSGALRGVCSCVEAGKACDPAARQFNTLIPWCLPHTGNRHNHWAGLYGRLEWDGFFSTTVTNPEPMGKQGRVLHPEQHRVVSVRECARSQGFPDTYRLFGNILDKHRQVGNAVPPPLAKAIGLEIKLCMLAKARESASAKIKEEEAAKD
Cytochrome P450 2C9, sequence (P11712 whole entry): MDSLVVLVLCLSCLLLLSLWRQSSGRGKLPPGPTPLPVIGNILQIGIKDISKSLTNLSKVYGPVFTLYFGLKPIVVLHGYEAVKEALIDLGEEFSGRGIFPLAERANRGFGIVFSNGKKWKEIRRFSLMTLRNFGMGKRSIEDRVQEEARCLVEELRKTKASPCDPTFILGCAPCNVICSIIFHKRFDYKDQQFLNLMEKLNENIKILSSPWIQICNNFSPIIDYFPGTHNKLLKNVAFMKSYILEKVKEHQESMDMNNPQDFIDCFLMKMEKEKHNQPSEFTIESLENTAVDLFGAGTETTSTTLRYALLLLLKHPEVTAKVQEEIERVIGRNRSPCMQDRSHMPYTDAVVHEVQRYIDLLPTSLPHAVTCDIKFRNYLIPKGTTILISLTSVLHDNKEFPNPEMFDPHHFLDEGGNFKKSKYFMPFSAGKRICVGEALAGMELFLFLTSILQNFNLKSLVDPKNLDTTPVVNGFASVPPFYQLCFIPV

For `Cc1cc(S(=O)(=O)Nc2cccc(Cl)c2)c(C)s1`, the IC50 [1] was > 29.9 µM (inactive), the EC50 [2] was 4.88 µM (active) and the IC50 [3] was 8.66 µM (active). The EC50 [4] was > 29.9 µM (inactive).

For `CCOc1cc2nc(-c3ccc(OC)c(OC)c3)nc(NCCCN3CCOCC3)c2cc1OC`, the AC50 [5] was 5.2 µM (active) and the AC50 [6] was 130 µM (active).

In the case of `O=C(CSc1cccc2cccnc12)OCC(=O)c1ccccc1`, the AC50 [6] is reported as 92.5 µM (active), the AC50 [7] is reported as 20 µM (inconclusive) and the AC50 [8] is reported as “inconclusive”.

In the case of `CN(C)CCNc1cc(-c2ccncc2)nc2ccccc12`, the AC50 [5] is reported as 17.2 µM (active) and the AC50 [9] is reported as 4.09 µM (active).

For `C=C(C)C(=O)Nc1cccc(C2=NOC3(C2)C[C@H](C(N)=O)N(C(=O)CC)C3)c1` (stereo not given in full), the IC50 [10] was > 50 µM (inactive) and the IC50 [11] was 4.32 µM (active).

With `CCOc1ccc(NC(=O)c2c(NC(=O)CNCCN3CCOCC3)sc3c2CCC3)cc1` the EC50 [12] was 1.95 µM (active), the EC50 [13] was > 150 µM (not active) and the EC50 [14] was 1.74 µM (active). For the same compound, the EC50 [15] was > 30 µM (not active), the EC50 [16] was 59.5 µM (active) and the AC50 [6] was 75.1 µM (active).

With `CCc1ccccc1NC(=O)N1CCc2ccccc2C1` the IC50 [1] was > 29.9 µM (inactive), the EC50 [2] was 0.321 µM (active) and the IC50 [3] was > 29.9 µM (inactive). The EC50 [4] was > 29.9 µM (inactive).

In the case of `CCCCCCCCN1C(=O)[C@H](CC(=O)NCc2cccs2)C[C@@]2(C(=O)OCC)CCCC=C12`, the AC50 [17] is reported as 16.8 µM (active), the AC50 [18] is reported as 25.1 µM (active) and the AC50 [19] is reported as 17 µM (active). The AC50 [20] was 22.7 µM (active).

In the case of `COc1ccc(NC(=O)Nc2ccc3c(c2)CC(=O)N([C@@H](C)CO)C[C@@H](C)[C@H](CN(C)Cc2ccc(C(F)(F)F)cc2)O3)cc1`, the AC50 [17] is reported as 6.8 µM (active), the AC50 [18] is reported as 23.2 µM (active) and the AC50 [19] is reported as 2.67 µM (active). For the same compound, the AC50 [20] was 27 µM (active).

In the case of `CN1CCN(CCCN2c3ccccc3Sc3ccc(Cl)cc32)CC1` [PROCHLORPERAZINE EDISYLATE], the IC50 [21] is reported as > 20 µM (inactive), the CC50 [22] is reported as 65 µM (active) and the IC50 [23] is reported as 80 µM (active). The AC50 [9] was 17.6 µM (active).
